What was measured:
crabgrass [1] = assay: Test Example 12: foliar application of compound No. 4-320 wettable powder with surfactant, crabgrass; type: in vivo, Digitaria sanguinalis L.; conditions: 15 g a.i./ha wettable powder, 21st day
Source text: (§1) On the 21st day after the application, the state of growth of the plants was visually observed (growth inhibition rate (%)=0 (the same as the untreated plot) to 100 (complete kill)), and the results as shown in Tables b1 and b2 were obtained.
(§2) Upland field soil was put into a 1/1,000,000 ha pot, and seeds of crabgrass were sown and grown in a greenhouse. When crabgrass reached 4.0 to 5.0 leaf stage, a prescribed amount (15 g a.i./ha) of a wettable powder comprising compound No. 4-3 as an active ingredient, prepared in accordance with the above Example 1, was diluted with water corresponding to 300 L/ha (containing 0.05 vol % of a surfactant containing the POA alkyl ether phosphate), followed by foliar application. Further, for comparison, foliar application was carried out in the same manner by using SILWETT L-77 (tradename) at a concentration of 0.1 vol % instead of the above surfactant.
On the 21st day after the application, the state of growth of the plant was evaluated in the same manner as in Test Example 1, and the results as shown in Table b16 were obtained.
The results as shown in Tables b17 were obtained in the same manner as in the above Test Example 11 except that a prescribed amount (15 g a.i./ha) of a wettable powder comprising compound No. 4-320 as an active ingredient, prepared in accordance with the above Example 1, was used.

barnyardgrass = assay: Test Example 13: foliar application of compound No. 5-1 wettable powder with surfactant, barnyardgrass; type: in vivo, Echinochloa crus-galli L; conditions: 31 g a.i./ha wettable powder, 21st day
Source text: as §1
as §2, with “of bamyardgrass” for “of crabgrass”, “When barnyardgrass” for “When crabgrass”, “to 4.5” for “to 5.0”, “amount (31” for “amount (15”, “No. 5-1” for “No. 4-3”
On the 21st day after the application, the state of growth of the plant was evaluated in the same manner as in Test Example 1, and the results as shown in Table b18 were obtained.

crabgrass [2] = assay: Test Example 8: foliar application of compound No. 2-6 wettable powder with surfactant, crabgrass; type: in vivo, Digitaria sanguinalis L.; conditions: 15 g a.i./ha wettable powder, 21st day
Source text: as §1
(§3) Upland field soil was put into a 1/1,000,000 ha pot, and seeds of bamyardgrass (Echinochloa crus-galli L) and crabgrass were respectively sown and grown in a greenhouse. When barnyardgrass reached 4.0 to 4.5 leaf stage and crabgrass reached 4.0 to 5.0 leaf stage, a prescribed amount (15 g a.i./ha) of a wettable powder comprising compound No. 2-6 as an active ingredient, prepared in accordance with the above Example 1, was diluted with water corresponding to 300 L/ha (containing 0.05 vol % of a surfactant containing the POA alkyl ether phosphate), followed by foliar application. Further, for comparison, foliar application was carried out in the same manner by using SILWETT L-77 (tradename.) at a concentration of 0.1 vol % instead of the above surfactant.
(§4) On the 21st day after the application, the state of growth of the plants was evaluated in the same manner as in Test Example 1, and the results as shown in Tables b11 and b12 were obtained.

[3] = test system: bamyardgrass (Echinochloa crus-galli L); assay: Test Example 8: foliar application of compound No. 2-6 wettable powder with surfactant, barnyardgrass; type: in vivo; conditions: 15 g a.i./ha wettable powder, 21st day
Source text: as §1, §3, §4

crabgrass [4] = assay: Test Example 10: foliar application of compound No. 2-185 wettable powder with surfactant, crabgrass; type: in vivo, Digitaria sanguinalis L.; conditions: 15 g a.i./ha wettable powder, 21st day
Source text: as §1, §3, §4
The results as shown in Tables b14 and b15 were obtained in the same manner as in the above Test Example 8 except that a prescribed amount (15 g a.i./ha) of a wettable powder comprising compound No. 2-185 as an active ingredient, prepared in accordance with the above Example 1, was used.

[5] = test system: bamyardgrass (Echinochloa crus-galli L); assay: Test Example 10: foliar application of compound No. 2-185 wettable powder with surfactant, barnyardgrass; type: in vivo; conditions: 15 g a.i./ha wettable powder, 21st day
Source text: as §1, §3
On the 21st day after the application, the state of growth of the plants was evaluated in the same manner as in Test Example 1, and the results as shown in Tables b11 and b12 were obtained. […]

crabgrass [6] = assay: Test Example 5: foliar application of compound No. 3-31 wettable powder with surfactant, crabgrass; type: in vivo, Digitaria sanguinalis L.; conditions: foliar application at 4.5 to 5.0 leaf stage, visual, 21st day, 0 = same as untreated, 100 = complete kill
Source text: as §1
Upland field soil was put into a 1/1,000,000 ha pot, and seeds of crabgrass were sown and grown in a greenhouse. When crabgrass reached 4.5 to 5.0 leaf stage, a prescribed amount (30 g a.i./ha) of a water-based suspension concentrate comprising compound No. 238 as an active ingredient, prepared in accordance with the above Example 6, was diluted with water corresponding to 300 L/ha (containing 0.05 vol % of a surfactant containing the POA alkyl ether phosphate), followed by foliar application. Further, for comparison, foliar application was carried out in the same manner by using CITOWETT (tradename) at a concentration of 0.3 vol %, instead of the above surfactant.
On the 21st day after the application, the state of growth of the plant was evaluated in the same manner as in Test Example 1, and the results as shown in Table b5 were obtained.
The results as shown in Table b8 were obtained in the same manner as in the above Test Example 3 except that a prescribed amount (60 g a.i./ha) of a wettable powder comprising compound No. 3-31 as an active ingredient, prepared in accordance with the above Example 5, was used.

[7] = surfactant NIKKOL DDP-8 0.05 vol %, present invention
[8] = surfactant PHOSPHOLAN PS-236 0.05 vol %, present invention
[9] = surfactant SILWETT L-77 0.1 vol %, comparison
[10] = surfactant ADECA COL PS-440E 0.05 vol %, present invention
[11] = surfactant NIKKOL TDP-8 0.05 vol %, present invention
[12] = surfactant PHOSPHANOL ML-240 0.05 vol %, present invention
[13] = surfactant PHOSPHANOL RS-710 0.05 vol %, present invention
[14] = surfactant PLYSURF A219B 0.05 vol %, present invention

Compound: CCn1ncc(C(=O)c2ccc(S(C)(=O)=O)c(OCCOC)c2C)c1OC(C)OC(=O)OC (stereo not drawn) [Compound No. 4-320, 1-(1-ethyl-4-(3-(2-methoxyethoxy)-2-methyl-4-(methylsulfonyl)benzoyl)-1H-pyrazol-5-yloxy)ethyl methyl carbonate]
- Growth inhibition rate (%) of crabgrass (crabgrass [1]; [7]): 90%
- Growth inhibition rate (%) of crabgrass (crabgrass [1]; [8]): 90%
- Growth inhibition rate (%) of crabgrass (crabgrass [1]; [9]): 88%

Compound: COCCOCc1nc(C(F)(F)F)ccc1C(=O)C1C(=O)C2CCC(C2)C1=O (stereo not drawn) [5-1]
- Growth inhibition rate (%) of barnyardgrass (barnyardgrass; [10]): 85%
- Growth inhibition rate (%) of barnyardgrass (barnyardgrass; [9]): 70%

Compound: CCn1ncc(C(=O)c2ccc(S(C)(=O)=O)c(OCCOC)c2C)c1O [2-6]
- Growth inhibition rate (%) of crabgrass (crabgrass [2]; [10]): 75%
- Growth inhibition rate (%) of crabgrass (crabgrass [2]; [7]): 70%
- Growth inhibition rate (%) of crabgrass (crabgrass [2]; [11]): 73%
- Growth inhibition rate (%) of crabgrass (crabgrass [2]; [12]): 85%
- Growth inhibition rate (%) of crabgrass (crabgrass [2]; [13]): 70%
- Growth inhibition rate (%) of crabgrass (crabgrass [2]; [14]): 78%
- Growth inhibition rate (%) of crabgrass (crabgrass [2]; [9]): 40%
- Growth inhibition rate (%) of barnyardgrass [3, 8]: 95%
- Growth inhibition rate (%) of barnyardgrass [3, 9]: 10%

Compound: COCc1c(S(C)(=O)=O)ccc(C(=O)c2cnn(C)c2O)c1C [2-185]
- Growth inhibition rate (%) of crabgrass (crabgrass [4]; [7]): 70%
- Growth inhibition rate (%) of crabgrass (crabgrass [4]; [11]): 70%
- Growth inhibition rate (%) of crabgrass (crabgrass [4]; [12]): 70%
- Growth inhibition rate (%) of crabgrass (crabgrass [4]; [13]): 73%
- Growth inhibition rate (%) of crabgrass (crabgrass [4]; [14]): 70%
- Growth inhibition rate (%) of crabgrass (crabgrass [4]; [9]): 20%
- Growth inhibition rate (%) of barnyardgrass [5, 8]: 80%
- Growth inhibition rate (%) of barnyardgrass [5, 9]: 0%

Compound: CS(=O)(=O)c1ccc(C(=O)C2C(=O)CCCC2=O)c(Cl)c1COCC(F)(F)F [Compound No. 3-31]
- Growth inhibition rate (%) of crabgrass (crabgrass [6]; comparison: 60 g a.i./ha wettable powder in 300 L/ha water with surfactant CITOWETT 0.3 vol %): 20%
- Growth inhibition rate (%) of crabgrass (crabgrass [6]; the present invention: 60 g a.i./ha wettable powder in 300 L/ha water with surfactant NIKKOL DDP-8 0.05 vol %): 80%
